One assay has as its target T1, OXA-48 (Klebsiella pneumoniae, UniProt Q6XEC0).
T1 construct: made in house; host or cells: E. coli BL21(DE3), T7 expression system
Nature of the assay: OXA-48 primary enzymatic assay (nitrocefin substrate, fluorescence-quenching readout). The class given is biochemical. The following applies: for AC50 / OXA-48 AC50: dose–response, median of triplicate wells, 15 min preincubation, 25 µM nitrocefin; for fold loss in potency/activity versus parent compound: AC50 ratio, parent ID3 for ID6, parent ID2 for 3 and 5–9. As for the experimental part:
After an initial pilot run (three plates, consisting of 960 randomly selected compounds), the primary screening of the subset plates was carried out at 20 µM in single point against OXA-48 enzyme in a nitrocefin-based assay, using the fluorescence-quenching readout. This enzymatic assay employs the cephalosporin nitrocefin as OXA-48 substrate and takes advantage of the fluorescent properties of white microtiter plates. Chromogenic nitrocefin is hydrolyzed by β-lactamases to yield a product with increased absorbance properties (~495 nm) that quenches the plate fluorescence by absorbing the plate’s emission light. In this assay, test compounds that inhibit OXA-48 catalytic activity are predicted to reduce nitrocefin quenching of plate fluorescence, resulting in a quantitative increase in well fluorescence (ON-system for inhibitors). The nitrocefin-based epi-absorbance readout system has been successfully applied in HTS campaigns on other β-lactamases, such as IMP-1 and VIM-2, with the identification of inhibitors belonging to novel scaffolds displaying a favourable degree of selectivity and sub-micromolar potency.
The screening results were expressed as activity percent. […] Overall, the primary assay robustness was good, with Robust Z Prime factor (RZ′) equal to 0.86.
In total, 256 active molecules (125 from the subset and 131 from the full set) were then assayed in dose–response at eight concentrations from 60 to 0.002 µM with interplate triplicate data points.
The blaOXA gene coding for the OXA-48 ß-lactamase, originally cloned from the K. pneumonia 11978 (a clinical isolate from Istanbul Faculty Hospital, Istanbul, Turkey) was overexpressed via a T7 expression system in E. coli BL21(DE3), and its product, native protein, (final yield of 30 mg/L of culture) was subjected to several purification steps, including ion-exchange chromatography with Q-Sepharose and 20 mM Tris-HCl buffer (pH 9.0), followed by chromatography with S-Sepharose columns and 100 mM sodium phosphate buffer (pH 5.8). Elution of the beta-lactamase was performed with a K2SO4 gradient. Peaks of beta-lactamase activity were concentrated and were dialyzed with 100 mM phosphate buffer (pH 7.0). The OXA-48 enzyme was purified to homogeneity (with a degree of purity around 95.4%.)-as measured by 12% SDS PAGE [23]. OXA-48 protein stock solution (2 mg/mL) was finally prepared in 20 mM Hepes (pH 8,1). OXA-48 β-lactamase specific activity was measured by following the hydrolysis of 100 μM nitrocefin (ε: 17,000 M-1 cm^−1 at 482 nm; Δε: 15,000 M-1 cm^−1 at 482 nm) and corresponding to 60.45 μmoles min^−1 mg^−1 of OXA-48 (kcat = 28.85 s^−1) enzyme. A MW of 28,147 g/mol, calculated from the enzyme sequence was confirmed by MALDI-TOF analysis with a Mass error of ± 2.8 Da.
The primary assay was developed to monitor the enzymatic activity of OXA-48 taking advantage of the spectroscopic properties of white microtiter plates (Optiplate-384, PerkinElmer, #6007290), as indicated by Zuck et al.. Nitrocefin is chromogenic substrate for beta-lactamases with λmax = 395 nm (yellow). Upon hydrolysis by OXA-48, nitrocefin yields (2R)-2-[(R)-carboxy[2-(thiophen-2-yl)acetamido]methyl]-5-[(E)-2-(2,4-dinitrophenyl)ethenyl]-3,6-dihydro-2H-1,3-thiazine-4-carboxylic acid, with increased absorbance properties at λmax = 495 nm. Spectroscopic features of the reaction product are exploited to quench the plate intrinsic fluorescence by absorbing the plate’s emission light, which can be monitored by exciting the reaction at 485 nm and recording the emission at 520 nm. Therefore, the primary assay for HTS was an ON-assay, in which compounds targeting OXA-48 were predicted to elicit an increase of the fluorescence signal.
The primary assay was performed in reaction buffer (20 mM Hepes pH 8.0, 12.5 mM NaCl, 0.005% BSA, 0.0005% Brij-35) in the presence of 0.0014 ng/µL OXA-48 and 25 µM nitrocefin in a final volume of 20 µL/well in 384 MTP format. […]

The next assay concerns E. coli ATCC BAA-2523. The assay can be described thus: MIC by broth microdilution, β-lactam-resistant strain producing OXA-48. The class given is cell-based, Escherichia coli. The following applies: Escherichia coli, ATCCBAA2523, β-lactam alone, read-out: MIC β-lactam. The source says:
(§1) To evaluate the capability of restoring β-lactam susceptibility, the two most promising representatives of SC_2 (ID3) and SC_7 (ID2) were screened alone and in combination with ampicillin (AMP) and IMP against sensitive and resistant Gram-negative bacteria. Avibactam and tazobactam were also included in the MIC characterization as BLI reference compounds. Specifically, we used E. coli ATCC25922 as antibiotic-sensitive strain, while E. coli ATCC BAA-2523 and K. pneumoniae ATCC BAA-2524 as β-lactam-resistant bacteria, producing OXA-48 carbapenemase.
(§2) Test compounds and tazobactam were tested at 32 µg/mL, while avibactam was applied at 4 µg/mL. […] Both antibiotics were selected for the combination study as they can be hydrolyzed by the target OXA-48 enzyme.
(§3) MIC values were determined by the broth dilution method and interpreted using published guidelines described by Clinical and Laboratory Standards Institute (CLSI).
(§4) All BLIs were dissolved in 100% DMSO and they were tested at a fixed concentration of 32 µg/mL and 1% of DMSO final concentration. Avibactam was used as reference β-lactamase inhibitor. All antimicrobials were prepared in line with CLSI susceptibility testing standards. AMP (USP # 1033000; batch no. K1M493) was dissolved at 5.12 mg/mL, IMP (USP # 1337809; batch no. R038R0) and avibactam (Biochem # NXL 104; batch no. 20180726) were dissolved at 1.28 mg/mL in the respective solvents recommended by CLSI (2). Solutions at 4X the final concentrations of the test range were made in Cation adjusted Mueller-Hinton broth (CA-MHB, BD # 212322; batch no. 6117994; Expiry date: 29.02.2020) by serial dilutions, and then diluted 2-fold with CA-MHB (for antimicrobials alone), or with the BLIs/avibactam (for combinations of new/reference inhibitors and antimicrobials). Moreover, all BLIs were tested alone at a fixed concentration of 32 μg/mL. The final concentration of DMSO in the test tubes was 1% for each different combination.
(§5) 50 μL of each well were then transferred from the masterblock into 96-well plates to whom were then added 50 μL of the final inoculum. MIC tests were performed by broth microdilution in line with CLSI susceptibility testing standards. Bacterial inocula were prepared at ca. 1 × 10^6 CFU/mL by diluting 100-fold a 0.5 McFarland suspension in CA-MHB with TES (TREK Diagnostic Systems, Product code: T3462; Batch: 356347; Expiry date: 12-Jun-2019). 50 μL of antibacterial solutions at 2 × the final concentrations were diluted 2-fold with 50 μL of inoculum to give a final inoculum of ca. 5 × 10^5 CFU/mL and desired test concentrations of antibacterial agents. Test plates were incubated according to CLSI guidelines and read visually. MIC values corresponded to the first well with no visible growth.

Assay [1] relates to K. pneumoniae ATCC BAA-2524. The description is as above. The class given is cell-based, Klebsiella pneumoniae. The following applies: Klebsiella pneumoniae, ATCCBAA2524, β-lactam alone, read-out: MIC β-lactam.
Excerpt: as §1, §2, §3, §4, §5

In a further assay the test system is E. coli ATCC25922. The assay can be described thus: MIC by broth microdilution, antibiotic-sensitive strain. The class given is cell-based. The following applies: Escherichia coli, β-lactam alone, read-out: MIC β-lactam.
Excerpt: as §1, §2, §3, §4, §5

SMILES strings stand for the structures.

The results in this text go back to article PMC8308845, “Discovery of Novel Chemical Series of OXA-48 β-Lactamase Inhibitors by High-Throughput Screening” (Pharmaceuticals, 2021).

T1 sequence (Q6XEC0 23-265, looked up): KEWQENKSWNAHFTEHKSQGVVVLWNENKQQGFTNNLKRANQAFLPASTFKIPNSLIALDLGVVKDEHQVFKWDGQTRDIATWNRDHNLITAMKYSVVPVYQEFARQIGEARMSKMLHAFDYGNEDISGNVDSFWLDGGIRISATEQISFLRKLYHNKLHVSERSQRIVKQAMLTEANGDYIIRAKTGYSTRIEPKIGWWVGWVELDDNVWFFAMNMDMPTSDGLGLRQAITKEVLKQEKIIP

`O=C(O)c1ccc(/C=N/n2c(S)nnc2-c2ccc(Cl)cc2Cl)cc1` [ID4] came in with an AC50 at OXA-48 of 3.17 µM. `O=C(O)c1ccc(/C=N/n2c(S)nnc2C2CCCCC2)cc1` [ID5]: on OXA-48, the AC50 is 2.88 µM. At OXA-48, `CCc1ccc(-c2n[nH]c3nc(-c4cc(F)c(O)cc4F)cc(C(=O)O)c23)cc1` [Compound 5, 6-(2,5-Difluoro-4-hydroxyphenyl)-3-(4-ethylphenyl)-1H-pyrazolo[3,4-b]pyridine-4-carboxylic acid] yielded a concentration at half-maximal activity (AC50) of 16.2 µM. On the same count and under the same terms, the result for `CCc1ccc(-c2n[nH]c3nc(-c4ccc(C(=O)O)c(F)c4)cc(C(=O)O)c23)cc1` [Compound 1, 6-(4-Carboxy-3-fluorophenyl)-3-(4-ethylphenyl)-1H-pyrazolo[3,4-b]pyridine-4-carboxylic acid] reads 0.92 µM; that for `CCc1ccc(-c2n[nH]c3nc(-c4cc(F)c(O)c(Cl)c4)cc(C(=O)O)c23)cc1` [Compound 9, 6-(3-Chloro-5-fluoro-4-hydroxyphenyl)-3-(4-ethylphenyl)-1H-pyrazolo[3,4-b]pyridine-4-carboxylic acid], 63.8 µM. Compound `N#Cc1ccc(/C=N/n2c(S)nnc2-c2ccccc2)cc1` [ID11] returned a half-maximal activity concentration (AC50) at OXA-48 of 12 µM. Still for that read-out and setting: to `CCc1ccc(-c2n[nH]c3nc(-c4cc(F)c(O)c(F)c4)cc(C(=O)O)c23)cc1` [Compound 6, 6-(3,5-Difluoro-4-hydroxyphenyl)-3-(4-ethylphenyl)-1H-pyrazolo[3,4-b]pyridine-4-carboxylic acid] belongs 24.4 µM. For the compound `CCc1ccc(-c2n[nH]c3nc(-c4ccc(C(=O)O)cc4)cc(CC)c23)cc1` [Compound 13, 4-(4-Ethyl-3-(4-ethylphenyl)-1H-pyrazolo[3,4-b]pyridin-6-yl)benzoic acid], at OXA-48, the AC50 is above 100 µM. The same measure, in the same setting: the result for `CCc1ccc(-c2n[nH]c3nc(-c4ccc(CC(=O)O)cc4)cc(C(=O)O)c23)cc1` [Compound 4, 6-(4-(Carboxymethyl)phenyl)-3-(4-ethylphenyl)-1H-pyrazolo[3,4-b]pyridine-4-carboxylic acid] reads 4.78 µM; that for `CCc1ccc(-c2n[nH]c3nc(-c4ccc(C(=O)O)cc4F)cc(C(=O)O)c23)cc1` [Compound 2, 6-(4-Carboxy-2-fluorophenyl)-3-(4-ethylphenyl)-1H-pyrazolo[3,4-b]pyridine-4-carboxylic acid], 1.48 µM. Consider `C[C@@H](O)[C@H]1C(=O)N2C(C(=O)O)=C(SCCN=CN)C[C@H]12` [IMP, imipenem], for which the MIC with E. coli ATCC BAA-2523 was 2 µg/mL; in assay [1], 4 µg/mL; with E. coli ATCC25922, 0.12 µg/mL.

Consider `CCc1ccc(-c2n[nH]c3nc(-c4ccccc4O)cc(C(=O)O)c23)cc1` [ID31], for which the “OXA-48 AC50” value at OXA-48 was “inactive”.

With `CCc1ccc(-c2n[nH]c3nc(-c4ccc(C(=O)O)cc4)cc(C(N)=O)c23)cc1` [Compound 14, 4-(4-Carbamoyl-3-(4-ethylphenyl)-1H-pyrazolo[3,4-b]pyridin-6-yl)benzoic acid], at OXA-48, the “OXA-48 AC50” value is recorded as “complete loss of activity”. With `CCc1ccc(-c2n[nH]c3nc(-c4ccccc4)cc(C(=O)O)c23)cc1` [ID30], on OXA-48, the AC50 came out at 249 µM and the “OXA-48 AC50” value was “inactive”. Turning to `CCc1ccc(-c2n[nH]c3nc(-c4ccc(C(=O)O)cc4)cc(C(F)(F)F)c23)cc1` [Compound 11, 4-(3-(4-Ethylphenyl)-4-(trifluoromethyl)-1H-pyrazolo[3,4-b]pyridin-6-yl)benzoic acid], at OXA-48, the AC50 was above 100 µM. Turning to `CCc1ccc(-c2n[nH]c3nc(-c4cccc(C(=O)O)c4)cc(C(=O)O)c23)cc1` [Compound 3, 6-(3-Carboxyphenyl)-3-(4-ethylphenyl)-1H-pyrazolo[3,4-b]pyridine-4-carboxylic acid], at OXA-48, the “fold loss in potency/activity versus parent compound” value was 17 fold and the AC50 was 16.8 µM.

Take `CCc1ccc(-c2n[nH]c3nc(-c4cc(Cl)c(O)c(OC)c4)cc(C(=O)O)c23)cc1` [Compound 8, 6-(3-Chloro-4-hydroxy-5-methoxyphenyl)-3-(4-ethylphenyl)-1H-pyrazolo[3,4-b]pyridine-4-carboxylic acid]: half-maximal activity at OXA-48 (AC50) was put at 13.7 µM. Still for that read-out and setting: to `Sc1nnc(-c2ccccc2)n1/N=C/c1cccs1` [ID23] belongs 24.8 µM; to `CCc1ccc(-c2n[nH]c3nc(-c4ccc(C(=O)O)cc4)ccc23)cc1` [Compound 10, 4-(3-(4-Ethylphenyl)-1H-pyrazolo[3,4-b]pyridin-6-yl)benzoic acid], above 100 µM. For the compound `CCc1ccc(-c2n[nH]c3nc(-c4ccc(C(=O)O)cc4)cc(CO)c23)cc1` [Compound 12, 4-(3-(4-Ethylphenyl)-4-(hydroxymethyl)-1H-pyrazolo[3,4-b]pyridin-6-yl)benzoic acid], on OXA-48, the AC50 is above 100 µM and the “OXA-48 AC50” value is reported as “complete loss of activity”.

Consider `CCc1ccc(-c2n[nH]c3nc(-c4ccc(O)c(F)c4F)cc(C(=O)O)c23)cc1` [Compound 7, 6-(2,3-Difluoro-4-hydroxyphenyl)-3-(4-ethylphenyl)-1H-pyrazolo[3,4-b]pyridine-4-carboxylic acid], for which, at OXA-48, half-maximal activity (AC50) was put at 51.2 µM. For `O=C(O)c1ccc(/C=N/n2cnnc2S)cc1` [ID6], on OXA-48, the “fold loss in potency/activity versus parent compound” value is on record as “more than 20 fold” and the activity was half-maximal at 15.7 µM (AC50).

`COC(=O)c1ccc(/C=N/n2c(S)nnc2-c2ccccc2)cc1` [ID9] had a concentration at half-maximal activity (AC50) at OXA-48 of 35.6 µM.
